Values quoted from earlier work as cited in US20080095853A1, “Modified Release For Proton Pump Inhibitors” (priority 2004, published 2008).

Test system: gastric acid
Conditions: splitting a 40 mg dose into 20 mg bid

In the case of COc1ccc2nc([S@@+]([O-])Cc3ncc(C)c(OC)c3C)[nH]c2c1 [esomeprazole], the “nocturnal gastric acid suppression” value is listed as “significantly improved”.
